Results on 14 compounds are retold here after patent publication US8859569B2, “Substituted annellated pyrimidines and use thereof” (Bayer Pharma Aktiengesellschaft, priority 2011, dated 2014).

The test system of one test is aorta rings. In words: Vessel-relaxing action in vitro (aorta rings, phenylephrine contraction). As to conditions: Oryctolagus cuniculus, concentration required to reduce phenylephrine-induced contraction of rabbit aorta rings by 50%. As for the experimental part:
B-1. Vessel-relaxing Action in vitro
Rabbits are stunned with a blow on the back of the neck and exsanguinated. The aorta is removed, freed from adhering tissue, separated into rings with a width of 1.5 mm, and placed individually, with preloading, in 5-ml organ baths with carbogen-gassed Krebs-Henseleit solution at 37° C. with the following composition (mM in each case): sodium chloride: 119; potassium chloride: 4.8; calcium chloride dihydrate: 1; magnesium sulphate heptahydrate: 1.4; potassium dihydrogen phosphate: 1.2; sodium hydrogen carbonate: 25; glucose: 10. The contraction force is recorded with Statham UC2 cells, amplified and digitized via an A/D converter (DAS-1802 HC, Keithley Instruments Munich) and recorded in parallel on a continuous-line recorder. To produce contraction, phenylephrine is added to the bath cumulatively in increasing concentration. After several control cycles, the test substance is added in increasing dosage in each subsequent pass and the level of contraction is compared with the level of contraction reached in the immediately preceding pass. This is used for calculating the concentration that is required to reduce the level of the control value by 50% (IC50 value). The standard application volume is 5 μl, and the proportion of DMSO in the bath solution corresponds to 0.1%.

The target of test [1] is T1, recombinant guanylate cyclase reporter cell line (Rattus norvegicus, UniProt P19686+P20595).
T1 construct: expressed in transfected cells
T1 sequence (P20595 1-619): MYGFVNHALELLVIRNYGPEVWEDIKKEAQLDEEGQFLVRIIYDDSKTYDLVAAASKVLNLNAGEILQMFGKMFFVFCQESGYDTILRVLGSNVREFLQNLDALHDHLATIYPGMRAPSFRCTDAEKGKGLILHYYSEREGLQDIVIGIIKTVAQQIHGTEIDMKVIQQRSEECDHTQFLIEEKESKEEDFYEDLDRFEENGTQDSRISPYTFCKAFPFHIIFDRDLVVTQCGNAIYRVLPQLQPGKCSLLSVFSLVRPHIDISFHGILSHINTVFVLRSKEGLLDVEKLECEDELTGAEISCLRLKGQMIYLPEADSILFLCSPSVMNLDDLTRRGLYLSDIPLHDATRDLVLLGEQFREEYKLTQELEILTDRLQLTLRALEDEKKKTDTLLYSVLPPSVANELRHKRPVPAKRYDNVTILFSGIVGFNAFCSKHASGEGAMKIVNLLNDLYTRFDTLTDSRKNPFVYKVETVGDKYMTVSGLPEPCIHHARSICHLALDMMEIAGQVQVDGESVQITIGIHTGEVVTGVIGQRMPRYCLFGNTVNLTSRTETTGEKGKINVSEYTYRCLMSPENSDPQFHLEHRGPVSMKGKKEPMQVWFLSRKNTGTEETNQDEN
T1 sequence (P19686 1-690): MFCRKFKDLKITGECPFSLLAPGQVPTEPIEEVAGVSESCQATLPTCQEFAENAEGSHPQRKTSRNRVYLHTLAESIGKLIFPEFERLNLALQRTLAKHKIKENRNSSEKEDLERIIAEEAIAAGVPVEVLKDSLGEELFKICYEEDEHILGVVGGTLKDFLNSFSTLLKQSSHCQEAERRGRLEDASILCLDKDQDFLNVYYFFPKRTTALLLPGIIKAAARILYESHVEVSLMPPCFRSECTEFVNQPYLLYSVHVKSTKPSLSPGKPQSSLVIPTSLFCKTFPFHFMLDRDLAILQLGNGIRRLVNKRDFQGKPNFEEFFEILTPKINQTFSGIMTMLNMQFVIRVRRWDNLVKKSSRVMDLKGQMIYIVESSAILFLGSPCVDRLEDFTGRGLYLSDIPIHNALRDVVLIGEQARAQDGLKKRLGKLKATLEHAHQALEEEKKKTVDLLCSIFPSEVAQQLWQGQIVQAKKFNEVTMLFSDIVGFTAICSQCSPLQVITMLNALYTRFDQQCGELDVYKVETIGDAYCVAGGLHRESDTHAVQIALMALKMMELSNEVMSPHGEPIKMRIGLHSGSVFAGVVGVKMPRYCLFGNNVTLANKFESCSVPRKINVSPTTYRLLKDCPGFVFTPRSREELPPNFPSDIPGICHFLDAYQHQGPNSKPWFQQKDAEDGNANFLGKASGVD
In words: Action on recombinant guanylate cyclase reporter cell line. It counts as cell-based. As for the experimental part: B-2. Action on Recombinant Guanylate Cyclase Reporter Cell Line
The cellular action of the compounds according to the invention is determined on a recombinant guanylate cyclase reporter cell line, as described in F. Wunder et al., Anal. Biochem. 339, 104-112 (2005).

Test [2] has as its target T2, human phosphodiesterase 5 (PDE-5) (Homo sapiens, UniProt O76074).
T2 construct: PDE-5 preparations are obtained from human platelets by lysis; from tissue; host or cells: human platelets
The test is described as follows: Inhibition of human phosphodiesterase 5 (PDE-5), SPA assay. It counts as biochemical. Conditions: PDE-5 preparation from human platelets, [8-3H]cGMP substrate. The procedure, abridged: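 Scintillation proximity read-out with yttrium beads after 60 min room-temperature hydrolysis of 0.025 μCi [8-3H]cGMP, pH 7.5 Tris/MgCl2/EDTA buffer. Enzyme is a human platelet PDE-5 fraction, diluted to keep substrate turnover below 70%. Test concentrations 4 μM–0.0018 μM final; IC50 from inhibition curves.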

SMILES strings stand for the structures.

For orientation: IC50 means the midpoint of a concentration-inhibition curve. High values mean weaker potency in that assay, low ones greater potency in that assay. For the compound `CC(C)(O)CNc1nc(-c2nn(Cc3ccccc3F)c3ncc(F)cc23)nc2c1C(C)(C)C(=O)N2` [Example 4, 2-[5-Fluoro-1-(2-fluorobenzyl)-1H-pyrazolo[3,4-b]pyridin-3-yl]-4-[(2-hydroxy-2-methylpropyl)amino]-5,5-dimethyl-5,7-dihydro-6H-pyrrolo[2,3-d]pyrimidin-6-one], the IC50 was determined as 62 nM with aorta rings and 6 nM in test [2]. Further, in test [1], the “MEC (minimal effective concentration)” value is 0.1 μm.
In the case of `CC1(C)C(=O)Nc2nc(-c3nn(Cc4ccccc4F)c4ncc(F)cc34)nc(NCCC(F)(F)F)c21` [Example 5, 2-[5-Fluoro-1-(2-fluorobenzyl)-1H-pyrazolo[3,4-b]pyridin-3-yl]-5,5-dimethyl-4-[(3,3,3-trifluoropropyl)amino]-5,7-dihydro-6H-pyrrolo[2,3-d]pyrimidin-6-one], the values for the IC50 (in the test on aorta rings; in test [2]) were 285 nM and 130 nM, respectively. Besides, the “MEC (minimal effective concentration)” value in test [1] is given as 0.03 μm.
Consider `CC1(C)C(=O)Nc2nc(-c3nn(Cc4ccccc4F)c4ncc(F)cc34)nc(NCC(F)F)c21` [Example 7, 4-[(2,2-Difluoroethyl)amino]-2-[5-fluoro-1-(2-fluorobenzyl)-1H-pyrazolo[3,4-b]pyridin-3-yl]-5,5-dimethyl-5,7-dihydro-6H-pyrrolo[2,3-d]pyrimidin-6-one], for which the concentration for half-maximal inhibition (IC50) with aorta rings is 200 nM; in test [2], 110 nM. The “MEC (minimal effective concentration)” value in test [1] was 0.1 μm.
The matching figures for `CC1(C)C(=O)Nc2nc(-c3nn(Cc4ccccc4F)c4ncc(F)cc34)nc(N3CC(F)C3)c21` [Example 8, 4-(3-Fluoroazetidin-1-yl)-2-[5-fluoro-1-(2-fluorobenzyl)-1H-pyrazolo[3,4-b]pyridin-3-yl]-5,5-dimethyl-5,7-dihydro-6H-pyrrolo[2,3-d]pyrimidin-6-one]: 309 nM, 400 nM and 0.3 μm.
In the same order, the values of `CC1(C)C(=O)Nc2nc(-c3nn(Cc4ccccc4F)c4ncc(F)cc34)nc(NC(C3CC3)C3CC3)c21` [Example 9, 4-[(Dicyclopropylmethyl)amino]-2-[5-fluoro-1-(2-fluorobenzyl)-1H-pyrazolo[3,4-b]pyridin-3-yl]-5,5-dimethyl-5,7-dihydro-6H-pyrrolo[2,3-d]pyrimidin-6-one] are 21000 nM, 230 nM and 0.1 μm.
For `CC1(C)C(=O)Nc2nc(-c3nn(Cc4ccccc4F)c4ncc(F)cc34)nc(NCC3CC3)c21` [Example 10, 4-[(Cyclopropylmethyl)amino]-2-[5-fluoro-1-(2-fluorobenzyl)-1H-pyrazolo[3,4-b]pyridin-3-yl]-5,5-dimethyl-5,7-dihydro-6H-pyrrolo[2,3-d]pyrimidin-6-one], the values for the IC50 (in the test with aorta rings; in test [2]) were 552 nM and 52 nM, respectively. Further, the “MEC (minimal effective concentration)” value in test [1] turned out to be 0.3 μm.
Take `CC1(C)C(=O)Nc2nc(-c3nn(Cc4ccccc4F)c4ncc(F)cc34)nc(NCC(F)(F)F)c21` [Example 11, 2-[5-Fluoro-1-(2-fluorobenzyl)-1H-pyrazolo[3,4-b]pyridin-3-yl]-5,5-dimethyl-4-[(2,2,2-trifluoroethyl)amino]-5,7-dihydro-6H-pyrrolo[2,3-d]pyrimidin-6-one]: the IC50 in the test with aorta rings amounted to 663 nM; in test [2], 48 nM. Also, the “MEC (minimal effective concentration)” value in test [1] is 0.3 μm.
As for `CC1(C)C(=O)Nc2nc(-c3nn(Cc4ncccc4F)c4ncc(F)cc34)nc(NCCC(F)(F)F)c21` [Example 12, 2-{5-Fluoro-1-[(3-fluoropyridin-2-yl)methyl]-1H-pyrazolo[3,4-b]pyridin-3-yl}-5,5-dimethyl-4-[(3,3,3-trifluoropropyl)amino]-5,7-dihydro-6H-pyrrolo[2,3-d]pyrimidin-6-one], the IC50 in the test with aorta rings came out at 631 nM; in test [2], 50 nM. Further, in test [1], the “MEC (minimal effective concentration)” value is reported as 0.1 μm.
The matching figures for `CC1(C)C(=O)Nc2nc(-c3nc(Cc4c(F)ccc(F)c4F)n4cc(Cl)ccc34)nc(NCCC(F)(F)F)c21` [Example 13, 2-[6-Chloro-3-(2,3,6-trifluorobenzyl)imidazo[1,5-a]pyridin-1-yl]-5,5-dimethyl-4-[(3,3,3-trifluoropropyl)amino]-5,7-dihydro-6H-pyrrolo[2,3-d]pyrimidin-6-one]: 4970 nM, 80 nM and 0.1 μm.
In the same order, the values of `CC1(C)C(=O)Nc2nc(-c3nn(Cc4ncccc4F)c4ncc(F)cc34)nc(N3CC(F)C3)c21` [Example 15, 4-(3-Fluoroazetidin-1-yl)-2-{5-fluoro-1-[(3-fluoropyridin-2-yl)methyl]-1H-pyrazolo[3,4-b]pyridin-3-yl}-5,5-dimethyl-5,7-dihydro-6H-pyrrolo[2,3-d]pyrimidin-6-one] are 453 nM, 430 nM and 1.0 μm.
In the same order, the values of `CC1(C)C(=O)Nc2nc(-c3nn(Cc4ncccc4F)c4ncc(F)cc34)nc(NCC(F)(F)F)c21` [Example 16, 2-{5-Fluoro-1-[(3-fluoropyridin-2-yl)methyl]-1H-pyrazolo[3,4-b]pyridin-3-yl}-5,5-dimethyl-4-[(2,2,2-trifluoroethyl)amino]-5,7-dihydro-6H-pyrrolo[2,3-d]pyrimidin-6-one] are 126 nM, 13 nM and 0.1 μm.
`CC1(C)C(=O)Nc2nc(-c3nn(Cc4ncccc4F)c4ncc(F)cc34)nc(NCC3CC3)c21` [Example 17, 4-[(Cyclopropylmethyl)amino]-2-{5-fluoro-1-[(3-fluoropyridin-2-yl)methyl]-1H-pyrazolo[3,4-b]pyridin-3-yl}-5,5-dimethyl-5,7-dihydro-6H-pyrrolo[2,3-d]pyrimidin-6-one]: the IC50 in the test with aorta rings worked out at 200 nM; in test [2] it was 24 nM. For the same compound, the “MEC (minimal effective concentration)” value in test [1] was 0.1 μm.
Consider `CC1(C)C(=O)Nc2nc(-c3nn(Cc4ccccc4F)c4ncc(F)cc34)nc(NCCCC(F)(F)F)c21` [Example 18, 2-[5-Fluoro-1-(2-fluorobenzyl)-1H-pyrazolo[3,4-b]pyridin-3-yl]-5,5-dimethyl-4-[(4,4,4-trifluorobutyl)amino]-5,7-dihydro-6H-pyrrolo[2,3-d]pyrimidin-6-one], for which the IC50 in the test with aorta rings was 2720 nM; in test [2] it was 120 nM. In addition, the “MEC (minimal effective concentration)” value in test [1] stood at 0.03 μm.
On to `CC1(C)C(=O)Nc2nc(-c3nn(Cc4ccccc4F)c4c3CCC4)nc(NCC(F)(F)F)c21` [Example 19, 2-[1-(2-Fluorobenzyl)-1,4,5,6-tetrahydrocyclopenta[c]pyrazol-3-yl]-5,5-dimethyl-4-[(2,2,2-trifluoroethyl)amino]-5,7-dihydro-6H-pyrrolo[2,3-d]pyrimidin-6-one], for which the concentration for half-maximal inhibition (IC50) stood at 1280 nM with aorta rings and 280 nM in test [2]. The “MEC (minimal effective concentration)” value in test [1] was found to be 0.3 μm.
